Data published in ChEMBL document CHEMBL1144385, “Solid-phase synthesis and antibacterial evaluations of N-demethylvancomycin derivatives” (2005).
≈ marks a conversion by molar mass, not a printed value.

Tests used:
Type in all cases: functional
Enterococcus faecalis [1] = experiment: Minimum inhibitory concentration against growth of Enterococcus faecalis (ATCC 29212)
Enterococcus faecalis [2] = experiment: Minimum inhibitory concentration against growth of vancomycin-resistant Enterococcus faecalis (ATCC 51299)
Staphylococcus aureus [3] = experiment: Minimum inhibitory concentration against growth of […] aureus (ATCC 29213)
Staphylococcus aureus [4] = experiment: Minimum inhibitory concentration against growth of Methicillin resistant […] aureus

Compound | MIC (Enterococcus faecalis [1]) [µg/mL] | MIC (Enterococcus faecalis [2]) [µg/mL] | MIC (Staphylococcus aureus [3]) [µg/mL] | MIC (Staphylococcus aureus [4]) [µg/mL]
CC(C)C[C@@H](N)C(=O)N[C@H]1C(=O)N[C@@H](CC(N)=O)C(=O)N[C@H]2C(=O)N[C@H]3C(=O)N[C@H](C(=O)N[C@H](C(=O)NCC(=O)O)c4cc(O)cc(O)c4-c4cc3ccc4O)[C@H](O)c3ccc(c(Cl)c3)Oc3cc2cc(c3O[C@@H]2O[C@@H](CO)[C@@H](O)[C@H](O)[C@@H]2O[C@H]2C[C@](C)(Nc3ccc(Cl)cc3)[C@H](O)[C@H](C)O2)Oc2ccc(cc2Cl)[C@H]1O | 10 (≈ 6.24 µM) | > 10 | 5 (≈ 3.12 µM) | 5 (≈ 3.12 µM)
C/C=C/CN(C/C=C/C)[C@H](CC(C)C)C(=O)N[C@H]1C(=O)N[C@@H](CC(N)=O)C(=O)N[C@H]2C(=O)N[C@H]3C(=O)N[C@H](C(=O)N[C@H](C(=O)NCC(=O)O)c4cc(O)cc(O)c4-c4cc3ccc4O)[C@H](O)c3ccc(c(Cl)c3)Oc3cc2cc(c3O[C@@H]2O[C@@H](CO)[C@@H](O)[C@H](O)[C@@H]2O[C@H]2C[C@](C)(Nc3ccc(Cl)cc3)[C@H](O)[C@H](C)O2)Oc2ccc(cc2Cl)[C@H]1O | > 10 | > 10 | > 10 | > 10
CCC(CC)N[C@H](CC(C)C)C(=O)N[C@H]1C(=O)N[C@@H](CC(N)=O)C(=O)N[C@H]2C(=O)N[C@H]3C(=O)N[C@H](C(=O)N[C@H](C(=O)NCC(=O)O)c4cc(O)cc(O)c4-c4cc3ccc4O)[C@H](O)c3ccc(c(Cl)c3)Oc3cc2cc(c3O[C@@H]2O[C@@H](CO)[C@@H](O)[C@H](O)[C@@H]2O[C@H]2C[C@](C)(Nc3ccc(-c4ccccc4)cc3)[C@H](O)[C@H](C)O2)Oc2ccc(cc2Cl)[C@H]1O | 5 (≈ 2.92 µM) | > 10 | 5 (≈ 2.92 µM) | 2.5 (≈ 1.46 µM)
CCCN(CCC)[C@H](CC(C)C)C(=O)N[C@H]1C(=O)N[C@@H](CC(N)=O)C(=O)N[C@H]2C(=O)N[C@H]3C(=O)N[C@H](C(=O)N[C@H](C(=O)NCC(=O)O)c4cc(O)cc(O)c4-c4cc3ccc4O)[C@H](O)c3ccc(c(Cl)c3)Oc3cc2cc(c3O[C@@H]2O[C@@H](CO)[C@@H](O)[C@H](O)[C@@H]2O[C@H]2C[C@](C)(Nc3ccc(-c4ccccc4)cc3)[C@H](O)[C@H](C)O2)Oc2ccc(cc2Cl)[C@H]1O | > 10 | > 10 | 5 (≈ 2.89 µM) | 5 (≈ 2.89 µM)
CC(C)C[C@@H](N)C(=O)N[C@H]1C(=O)N[C@@H](CC(N)=O)C(=O)N[C@H]2C(=O)N[C@H]3C(=O)N[C@H](C(=O)N[C@H](C(=O)NCC(=O)O)c4cc(O)cc(O)c4-c4cc3ccc4O)[C@H](O)c3ccc(c(Cl)c3)Oc3cc2cc(c3O[C@@H]2O[C@@H](CO)[C@@H](O)[C@H](O)[C@@H]2O[C@H]2C[C@](C)(Nc3ccc(-c4ccccc4)cc3)[C@H](O)[C@H](C)O2)Oc2ccc(cc2Cl)[C@H]1O | 5 (≈ 3.04 µM) | > 10 | 5 (≈ 3.04 µM) | 5 (≈ 3.04 µM)
CCCN[C@H](CC(C)C)C(=O)N[C@H]1C(=O)N[C@@H](CC(N)=O)C(=O)N[C@H]2C(=O)N[C@H]3C(=O)N[C@H](C(=O)N[C@H](C(=O)NCC(=O)O)c4cc(O)cc(O)c4-c4cc3ccc4O)[C@H](O)c3ccc(c(Cl)c3)Oc3cc2cc(c3O[C@@H]2O[C@@H](CO)[C@@H](O)[C@H](O)[C@@H]2O[C@H]2C[C@](C)(Nc3ccc(-c4ccccc4)cc3)[C@H](O)[C@H](C)O2)Oc2ccc(cc2Cl)[C@H]1O | 10 (≈ 5.93 µM) | > 10 | 5 (≈ 2.96 µM) | 5 (≈ 2.96 µM)
CCCN(CCC)[C@H](CC(C)C)C(=O)N[C@H]1C(=O)N[C@@H](CC(N)=O)C(=O)N[C@H]2C(=O)N[C@H]3C(=O)N[C@H](C(=O)N[C@H](C(=O)NCC(=O)O)c4cc(O)cc(O)c4-c4cc3ccc4O)[C@H](O)c3ccc(c(Cl)c3)Oc3cc2cc(c3O[C@@H]2O[C@@H](CO)[C@@H](O)[C@H](O)[C@@H]2O[C@H]2C[C@](C)(Nc3ccc(Cl)cc3)[C@H](O)[C@H](C)O2)Oc2ccc(cc2Cl)[C@H]1O | > 10 | > 10 | 5 (≈ 2.96 µM) | 5 (≈ 2.96 µM)
CCC(CC)N[C@H](CC(C)C)C(=O)N[C@H]1C(=O)N[C@@H](CC(N)=O)C(=O)N[C@H]2C(=O)N[C@H]3C(=O)N[C@H](C(=O)N[C@H](C(=O)NCC(=O)O)c4cc(O)cc(O)c4-c4cc3ccc4O)[C@H](O)c3ccc(c(Cl)c3)Oc3cc2cc(c3O[C@@H]2O[C@@H](CO)[C@@H](O)[C@H](O)[C@@H]2OC2C[C@](C)(NC(CC)CC)[C@H](O)[C@H](C)O2)Oc2ccc(cc2Cl)[C@H]1O (single isomer, unassigned) | > 10 | > 10 | > 10 | > 10
CC(C)C[C@@H](N)C(=O)N[C@@H]1C(=O)N[C@@H](CC(N)=O)C(=O)N[C@H]2C(=O)N[C@H]3C(=O)N[C@H](C(=O)N[C@H](C(=O)O)c4cc(O)cc(O)c4-c4cc3ccc4O)[C@H](O)c3ccc(c(Cl)c3)Oc3cc2cc(c3O[C@@H]2O[C@H](CO)[C@@H](O)[C@H](O)[C@H]2O[C@H]2C[C@](C)(N)C(O)[C@H](C)O2)Oc2ccc(cc2Cl)[C@H]1O (stereo not given in full) [DEMETHYLVANCOMYCIN] | 2.5 (≈ 1.74 µM) | > 10 | < 0.6 | < 0.6
CN[C@H](CC(C)C)C(=O)N[C@H]1C(=O)N[C@@H](CC(N)=O)C(=O)N[C@H]2C(=O)N[C@H]3C(=O)N[C@H](C(=O)N[C@H](C(=O)O)c4cc(O)cc(O)c4-c4cc3ccc4O)[C@H](O)c3ccc(c(Cl)c3)Oc3cc2cc(c3O[C@@H]2O[C@H](CO)[C@@H](O)[C@H](O)[C@H]2O[C@H]2C[C@](C)(N)[C@H](O)[C@H](C)O2)Oc2ccc(cc2Cl)[C@H]1O [VANCOMYCIN] | 2.5 (≈ 1.73 µM) | > 10 | 0.62 (≈ 0.428 µM) | 1.25 (≈ 0.863 µM)
